Key:
[1] = comparison probe; cited from earlier work
[2] = Fluorescence response to various ROS (H2O2 selectivity); conditions: 20 mM HEPES, pH 7, 25° C.; for higher response for H2O2 over NO: NO delivered using SNOC; for higher response for H2O2 over .OH: .OH from Fe2+ with H2O2; for higher response for H2O2 over .OtBu: .OtBu from Fe2+ with TBHP
Method: (§1) FIG. 7 is the fluorescence response of 5 μM PF1 to various ROS (10 mM O2^−, 100 μM for all other ROS). .OH and .Ot-Bu were generated by reaction of Fe^2+ with H2O2 or tert-butyl hydroperoxide (TBHP), respectively. NO was delivered using S-nitrosocysteine (SNOC). Spectra were acquired in 20 mM HEPES, pH 7, and all data were obtained after incubation with the appropriate ROS at 25° C. for 1 h. Collected emission was integrated between 460 and 700 nm (λexc=450 nm).
FIG. 8 is the fluorescence response of 5 μM PR1 to various ROS (10 mM O2^−, 100 μM for all other ROS). .OH and .O^tBu were generated by reaction of Fe^2+ with H2O2 or tert-butyl hydroperoxide (TBHP), respectively. NO was delivered using S-nitrosocysteine (SNOC). Spectra were acquired in 20 mM HEPES, pH 7, and all data were obtained after incubation with the appropriate ROS at 25° C. for 30 min. Collected emission was integrated between 570 and 800 nm (λexc=560 nm).
as §1, with “FIG. 9” for “FIG. 7”, “of 10” for “of 5”, “μM PX1” for “μM PF1”, “between 370” for “between 460”, “and 600” for “and 700”, “nm (λexc=350” for “nm (λexc=450”
(§2) Millipore water was used to prepare all aqueous solutions. All spectroscopic measurements were performed in 20 mM HEPES buffer, pH 7. Absorption spectra were recorded using a Varian Cary 50 spectrophotometer (Walnut Creek, Calif.). Fluorescence spectra were recorded using a Photon Technology International Quanta Master 4 L-format scanning spectrofluorometer (Lawrenceville, N.J.) equipped with an LPS-220B 75-W xenon lamp and power supply, A-1010B lamp housing with integrated igniter, switchable 814 photon-counting/analog photomultiplier detection unit, and MD5020 motor driver. Samples for absorption and fluorescence measurements were contained in 1-cm×1-cm quartz cuvettes (1.4- or 3.5-mL volume, Starna, Atascadero, Calif.).
FIG. 7, FIG. 8 and FIG. 9 compare the relative reactivities of boronate-based PF1, PR1, and PX1, respectively, toward various ROS.

[3] = Fluorescence response of the Peroxysensor probes to H2O2 in buffer; conditions: 20 mM HEPES buffer, pH 7; H2O2 addition
Method: as §2
(§3) The Peroxysensor reagents were evaluated under simulated physiological conditions (20 mM HEPES buffer, pH 7). […] FIG. 4, FIG. 5 and FIG. 6 show the fluorescence responses of PF1, PR1, and PX1, respectively, to H2O2.

[4] = tested on: HEK cells; test: Two-photon fluorescence imaging of H2O2 in live HEK cells; format: cell-based
Method: Two-photon excitation was provided at 704 nm, and emission was collected in a window from 420 to 500 nm. Scale bar=18 μm
Two-photon fluorescence imaging of PX1 was carried out using an inverted Zeiss LSM510 Axiovert 200M microscope with a NeoFLUAR 40x/1.3 NA oil-immersion objective lens. Samples were excited by 704-nm pulses from a mode-locked Ti:Sapphire laser (Tsunami, SpectraPhysics, 120-150 fs pulse width, 80 MHz repetition rate). The emission light was filtered with a 80-nm wide bandpass filter centered at 460 nm (460BP40, Chroma) and detected with the non-descanned detector (NDD) of the LSM510.
Alternative methods were explored for applying the blue-fluorescent PX1 reporter toward intracellular H2O2 detection, reasoning that its short ultraviolet excitation maximum (˜350 nm) would promote interfering absorbance, scattering, and background autofluorescence from native cellular species. […] Whereas one-photon fluorescence microscopy uses a single photon to excite a fluorophore into its excited state, two-photon fluorescence microscopy uses two photons of lower energy light to generate a fluorophore excited state. […] Control cells without probe give the same fluorescence response, establishing that the observed background signal is from endogenous cellular species.

[5] = Spectroscopic properties under simulated physiological conditions; format: physicochemical; conditions: 20 mM HEPES buffer; for fluorescence of unreacted probe: pH 7, before H2O2
Method: as §2, §3

[6] = tested on: HEK cells; test: Confocal fluorescence imaging of H2O2 in live HEK cells; conditions: for cell viability during imaging: HEK cells after probe incubation and H2O2 treatment; for intracellular background fluorescence of the unreacted probe: live HEK cells, 5-10 μM probe, 5-10 min at 25° C., before H2O2; for intracellular fluorescence change upon addition of H2O2: probe-loaded live HEK cells, 10-100 μM H2O2
Method: (a) Fluorescence image of HEK cells incubated with 5 μM PF1 for 5 min at 25° C. (b) Fluorescence image of PF1-stained HEK cells treated with 100 μM H2O2 for 11 min at 25° C. Excitation was provided at 488 nm, and emission was collected in a window from 505 to 580 nm. Scale bar=27 μm.
(a) Fluorescence image of HEK cells incubated with 10 μM PR1 for 10 min at 25° C. (b) Fluorescence image of PR1-stained HEK cells treated with 100 μM H2O2 for 30 min at 25° C. Excitation was provided at 543 nm, and emission was collected in a window from 548 to 644 nm. Scale bar=18 μm.
HEK 293T cells were cultured in Dulbecco's Modified Eagle Medium (DMEM, Invitrogen, Carlsbad, Calif.) supplemented with 10% Fetal Bovine Serum (FBS, Invitrogen), glutamine (2 mM), and penicillin/streptomycin (50 μg/ml, Invitrogen). One day before imaging, cells were passed and plated on 18-mm glass coverslips coated with poly-L-lysine (50 μg/ml, Sigma, St. Louis, Mo.). Immediately before the experiments, cells were washed with PBS buffer, incubated with the probe in PBS, and imaged.
Confocal fluorescence imaging was performed with a Zeiss LSM510 META laser scanning microscope containing an Axioplan 2 MOT upright microscope and a 40× water-immersion objective lens. Excitation of PF1-loaded cells at 488 nm was carried out with an argon ion laser, and emission was collected in a window from 505 nm to 580 nm using a META detection system. Excitation of PR1-loaded cells at 543 nm was carried out with a HeNe laser, and emission was collected in a window from 548 nm to 644 nm using a META detector. PF1 or PR1 were incubated with live cell samples for 5 to 10 min. Addition of H2O2 (10 to 100 μM) to cell samples was performed directly on the microscope stage by bath application to the media.
The family of red-, green-, and blue-fluorescent reagents for the optical detection of H2O2 in living biological samples.

[7] = tested on: embryonic rat hippocampal neurons (E18); test: Fluorescence imaging of H2O2 in primary hippocampal neurons; format: cell-based
Method: Hippocampal primary cultures were prepared from embryonic day 18 (E18) rat embryos according to a previously reported protocol. Briefly, hippocampi were dissociated by treatment with trypsin for 20 min at 37° C. followed by washing. The neuronal cells were plated on glass coverslips (Carolina Biological, Burlington, N.C.) coated with poly-L-lysine (50 μg/ml, Sigma) and cultured in neurobasal medium supplemented with 2 mM Glutamax and 2% B-27 (Invitrogen). After 10 days in vitro, the cultures were washed with PBS, incubated with the probe in PBS, and imaged.
Finally, the successful use of the Peroxysensor probes for monitoring changes in intracellular H2O2 concentrations in mammalian cell lines using either confocal or two-photon microscopy led us to evaluate their utility in primary culture systems. […] Control neurons without PF1 and/or H2O2 treatment show no detectable fluorescence enhancements. These experiments confirm that PF1 can be used in living neurons to detect oxidative stress events.

| SMILES | higher response for H2O2 over NO ([2]; 100 μM ROS) | fluorescence of unreacted probe [5] | higher response for H2O2 over .OH ([2]; 100 μM ROS) [fold] | higher response for H2O2 over .OtBu ([2]; 100 μM ROS) [fold] | cell viability during imaging [6] | intracellular background fluorescence of the unreacted probe [6] | intracellular fluorescence change upon addition of H2O2 [6] | also measured |
| --- | --- | --- | --- | --- | --- | --- | --- | --- |
| O=C(O)c1ccccc1C1c2cc(Cl)c(O)cc2Oc2cc(O)c(Cl)cc21 [DCFH, 2′,7′-dichlorodihydrofluorescein] | – | – | – | – | – | – | – | fluorescence increase by reaction with .OH or peroxynitrite (ONOO−) [1]: ca. 7000 fold; fluorescence increase upon addition of H2O2 [1]: 190 fold; fluorescence increase upon light-induced autoxidation [1]: 2000 fold; fluorescence increase with NO [1]: 150 fold; fluorescence increase with O2− [1]: 67 fold |
| CC1(C)OB(c2ccc3c(=O)c4ccc(B5OC(C)(C)C(C)(C)O5)cc4oc3c2)OC1(C)C [PX1, 3,6-Bis(pinacolatoboron)xanthone] | ca. 6 fold | weak fluorescence | – | – | – | – | – | higher response for H2O2 over tert-butyl hydroperoxide (TBHP) ([2]; 100 μM ROS): > 100 fold; increase in integrated fluorescence intensity (dynamic range) upon reaction with H2O2 [3]: 52 fold; intracellular background fluorescence of the unreacted probe ([4]; live HEK cells, 10 μM probe, 2-3 min at 25° C., two-photon excitation 704 nm): minimal intracellular background fluorescence; intracellular fluorescence change upon addition of H2O2 ([4]; probe-stained HEK cells, 100 μM H2O2, two-photon excitation 704 nm): Prompt increases in intracellular blue fluorescence; emission maximum of unreacted probe ([5]; pH 7): 400 nm; ultraviolet absorption maximum ([5]; pH 7): 350 nm; extinction coefficient ε at absorption maximum ([5]; pH 7, 350 nm): 4700 M⁻¹ cm⁻¹ |
| CC1(C)OB(c2ccc3c(c2)Oc2cc(B4OC(C)(C)C(C)(C)O4)ccc2N3)OC1(C)C [PR1, 3,7-Bis(pinacolatoboron)phenoxazine] | > 200 fold | non-fluorescent | > 200 | > 200 | cells are viable throughout the experiments | virtually no background fluorescence | Striking increases in intracellular red fluorescence | higher response for H2O2 over O2− ([2]; 10 mM O2−, 100 μM H2O2): > 1000 fold |
| CC1(C)OB(c2ccc3c(c2)Oc2cc(B4OC(C)(C)C(C)(C)O4)ccc2C32OC(=O)c3ccccc32)OC1(C)C [PF1, 3′,6′-Bis(pinacolatoboron)fluoran] | – | non-fluorescent | > 3 | > 15 | cells are viable throughout the imaging experiments | negligible intracellular background fluorescence | prompt increases in intracellular green fluorescence | background fluorescence of the unreacted probe ([7]; 10 μM probe, 5 min at 25° C.): negligible background fluorescence; intracellular fluorescence change under simulated oxidative stress ([7]; 300 μM H2O2 for 30 min at 25° C.): notable increases in intracellular fluorescence |

Source: patent US7842823B2, “Fluorogenic probes for reactive oxygen species” (The Regents of the University of California, priority 2005, dated 2010)
